Data as given in patent US9260446B2, “Synthetic methods for spiro-oxindole compounds” (Xenon Pharmaceuticals Inc., priority 2009, dated 2016).

These molecules were tested against hNav1.7 (Homo sapiens (Human), UniProt Q15858). Details: voltage-gated sodium channel blocking activity against hNav1.7.
Sequence of hNav1.7 (Q15858 whole entry): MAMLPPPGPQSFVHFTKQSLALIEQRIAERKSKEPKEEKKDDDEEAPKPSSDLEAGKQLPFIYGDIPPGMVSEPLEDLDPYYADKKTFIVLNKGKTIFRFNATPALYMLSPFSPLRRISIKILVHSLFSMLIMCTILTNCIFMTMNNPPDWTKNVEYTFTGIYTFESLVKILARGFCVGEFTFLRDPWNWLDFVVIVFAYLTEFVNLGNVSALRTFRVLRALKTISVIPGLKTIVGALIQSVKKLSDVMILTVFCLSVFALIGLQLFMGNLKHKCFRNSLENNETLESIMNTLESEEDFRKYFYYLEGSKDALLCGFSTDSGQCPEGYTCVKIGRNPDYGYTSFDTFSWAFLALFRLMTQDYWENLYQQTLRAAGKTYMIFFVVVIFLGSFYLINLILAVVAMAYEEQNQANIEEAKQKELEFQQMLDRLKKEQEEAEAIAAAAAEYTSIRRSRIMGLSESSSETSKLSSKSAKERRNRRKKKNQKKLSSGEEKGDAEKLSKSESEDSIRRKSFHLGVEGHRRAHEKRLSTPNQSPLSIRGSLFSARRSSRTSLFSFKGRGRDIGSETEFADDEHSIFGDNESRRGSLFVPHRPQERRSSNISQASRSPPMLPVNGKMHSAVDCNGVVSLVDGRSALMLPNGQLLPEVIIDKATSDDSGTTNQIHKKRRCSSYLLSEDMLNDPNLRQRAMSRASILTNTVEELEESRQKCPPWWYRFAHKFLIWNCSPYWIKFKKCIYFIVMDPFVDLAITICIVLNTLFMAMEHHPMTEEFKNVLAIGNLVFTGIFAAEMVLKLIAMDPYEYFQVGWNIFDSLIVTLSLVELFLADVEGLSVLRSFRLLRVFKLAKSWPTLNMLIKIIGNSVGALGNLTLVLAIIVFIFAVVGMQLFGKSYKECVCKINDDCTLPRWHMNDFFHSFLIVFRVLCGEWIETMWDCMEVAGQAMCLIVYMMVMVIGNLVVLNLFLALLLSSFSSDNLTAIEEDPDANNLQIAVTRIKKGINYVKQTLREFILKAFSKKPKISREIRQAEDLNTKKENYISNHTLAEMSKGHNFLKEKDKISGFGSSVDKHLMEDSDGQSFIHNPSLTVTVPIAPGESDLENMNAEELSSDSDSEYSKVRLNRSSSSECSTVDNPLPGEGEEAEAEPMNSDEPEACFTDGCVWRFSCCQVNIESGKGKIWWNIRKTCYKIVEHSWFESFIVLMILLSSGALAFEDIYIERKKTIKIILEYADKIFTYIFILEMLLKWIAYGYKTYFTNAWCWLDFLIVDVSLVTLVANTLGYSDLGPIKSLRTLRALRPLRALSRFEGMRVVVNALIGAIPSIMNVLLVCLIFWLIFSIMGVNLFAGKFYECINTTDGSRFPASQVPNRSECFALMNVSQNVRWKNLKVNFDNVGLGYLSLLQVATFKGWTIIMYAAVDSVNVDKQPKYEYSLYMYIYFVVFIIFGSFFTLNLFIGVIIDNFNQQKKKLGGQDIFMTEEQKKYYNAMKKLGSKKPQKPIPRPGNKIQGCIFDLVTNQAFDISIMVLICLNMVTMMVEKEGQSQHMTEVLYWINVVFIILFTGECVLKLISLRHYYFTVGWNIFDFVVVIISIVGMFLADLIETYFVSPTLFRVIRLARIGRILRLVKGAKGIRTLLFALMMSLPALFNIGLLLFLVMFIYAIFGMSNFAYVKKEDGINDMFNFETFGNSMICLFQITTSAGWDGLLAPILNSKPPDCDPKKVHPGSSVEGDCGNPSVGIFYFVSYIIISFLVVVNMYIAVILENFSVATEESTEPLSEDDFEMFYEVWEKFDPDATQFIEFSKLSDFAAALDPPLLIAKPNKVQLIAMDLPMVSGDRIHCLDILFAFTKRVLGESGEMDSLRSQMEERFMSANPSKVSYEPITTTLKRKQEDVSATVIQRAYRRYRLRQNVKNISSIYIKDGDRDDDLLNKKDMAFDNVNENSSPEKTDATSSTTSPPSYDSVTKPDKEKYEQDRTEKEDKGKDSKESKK

Row | SMILES | IC50
1 | O=C1N(Cc2ncccc2C(F)(F)F)c2ccccc2[C@]12COc1cc3c(cc12)OCCO3 [(II-S), (S)-1′-{[3-(trifluoromethyl)pyridin-2-yl]methyl}-2,3-dihydrospiro[furo[2,3-g][1,4]benzodioxine-8,3′-indol]-2′(1′H)-one] | 5 nM
2 | O=C1N(Cc2ccc(C(F)(F)F)o2)c2ccccc2[C@]12COc1cc3c(cc12)OCO3 [(I-S), (S)-1′-{[5-(trifluoromethyl)furan-2-yl]methyl}spiro-[furo[2,3-f][1,3]benzodioxole-7,3′-indol]-2′(1′H)-one] | 3 nM
3 | O=C1N(Cc2ccc(C(F)(F)F)o2)c2ccccc2[C@@]12COc1cc3c(cc12)OCO3 [(I-R), (R)-1′-{[5-(trifluoromethyl)furan-2-yl]methyl}spiro[furo[2,3-f][1,3]-benzodioxole-7,3′-indol]-2′(1′H)-one] | 4200 nM
4 | O=C1N(Cc2ncccc2C(F)(F)F)c2ccccc2C12COc1cc3c(cc12)OCCO3 (centres unmarked) [(II), 1′-{[3-(trifluoromethyl)pyridin-2-yl]methyl}-2,3-dihydrospiro[furo[2,3-g][1,4]benzodioxine-8,3′-indol]-2′(1′H)-one] | 15 nM
5 | O=C1N(Cc2ccc(C(F)(F)F)o2)c2ccccc2C12COc1cc3c(cc12)OCO3 (centres unmarked) [(I), 1′-{[5-(trifluoromethyl)-2-furyl]methyl}spiro[furo[2,3-f][1,3]benzodioxole-7,3′-indol]-2′(1′H)-one] | 7 nM
